Holding throughout (assay type): in vivo
Assay [1] relates to Abutilon theophrasti. Put plainly: Pre-emergence herbicidal activity, glasshouse pot test. The following applies: pre-emergence spray, rate 1000 g/ha, evaluated after 13 days, scale 0-5. The method, boiled down:
(§1)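 Pots of seeded soil were sprayed one day after sowing (pre-emergence) with compound formulated in acetone/water 50:50 with 0.5% Tween 20. Plants were grown in a glasshouse at 24/16 °C day/night, 14 h light, 65% humidity. Damage was scored after 13 days on a 0–5 scale (5 = total damage).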

The subject of assay [2] is Alopecurus myosuroides. The assay is described as above. The following applies: pre-emergence spray, rate 1000 g/ha, evaluated after 13 days, scale 0-5. The method, boiled down: as §1
The test system of assay [3] is Amaranthus retroflexus. The assay is described as above. The following applies: pre-emergence spray, rate 1000 g/ha, evaluated after 13 days, scale 0-5. In outline:
as §1

Assay [4] has as its system Echinochloa crus-galli. The assay is described as above. Conditions: pre-emergence spray, rate 1000 g/ha, evaluated after 13 days, scale 0-5. In outline: as §1
For assay [5], the system named is Setaria faberi. Described as above. Conditions: pre-emergence spray, rate 1000 g/ha, evaluated after 13 days, scale 0-5. In outline:
as §1

The subject of assay [6] is zea mays. The description is as above. Conditions: pre-emergence spray, rate 1000 g/ha, evaluated after 13 days, scale 0-5. The method, boiled down:
as §1

The subject of assay [7] is Abutilon theophrasti. Nature of the assay: Post-emergence herbicidal activity, glasshouse pot test. More on the design: key: 0 = no damage to plant, 5 = total damage to plant. The following applies: Application post-emergence, rate 1000 g/ha, evaluated after 13 days. In outline:
(§2)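 Test solution: technical active ingredient in acetone/water (50:50) containing 0.5% Tween 20, applied as an aqueous spray to 8-day-old plants. Evaluation at 13 days, 0–5 damage scale.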

The subject of assay [8] is Alopecurus myosuroides. The description is as above. Also on record: key: 0 = no damage to plant, 5 = total damage to plant. The following applies: Application post-emergence, rate 1000 g/ha, evaluated after 13 days. The method, boiled down: as §2
Assay [9] concerns Amaranthus retroflexus. The description is as above. Also on record: key: 0 = no damage to plant, 5 = total damage to plant. The following applies: Application post-emergence, rate 1000 g/ha, evaluated after 13 days. The method, boiled down: as §2
The subject of assay [10] is Echinochloa crus-galli. Described as above. The following applies: Application post-emergence, rate 1000 g/ha, evaluated after 13 days. Also on record: key: 0 = no damage to plant, 5 = total damage to plant. In outline: as §2
In assay [11] the test system is Setaria faberi. The description is as above. Also on record: key: 0 = no damage to plant, 5 = total damage to plant. The following applies: Application post-emergence, rate 1000 g/ha, evaluated after 13 days. In outline:
as §2

For assay [12], the system named is zea mays. The assay is described as above. Also on record: key: 0 = no damage to plant, 5 = total damage to plant. Conditions: Application post-emergence, rate 1000 g/ha, evaluated after 13 days. The method, boiled down: as §2

The structures appear in SMILES notation.

Regarding `CCC(=O)OC1C(C)=C(Cl)C(=O)N1c1cc(C(F)(F)F)c(-c2cccc(C#N)c2)cn1` (stereo not drawn) [AF94], in the assay on Abutilon theophrasti [1], the “ABUTH damage score, application pre-emergence” value (“ABUTH damage score” below) is 0. Further, the “ALOMY damage score, application pre-emergence” value (“ALOMY damage score” below) in the assay on Alopecurus myosuroides [2] amounted to 0. Besides, the “AMARE damage score, application pre-emergence” value (“AMARE damage score” below) with Amaranthus retroflexus [3] stood at 3. Besides, the “ECHCG damage score, application pre-emergence” value (“ECHCG damage score” below) in the assay on Echinochloa crus-galli [4] was found to be 0. For the same compound, the “SETFA damage score, application pre-emergence” value (“SETFA damage score” below) in the assay on Setaria faberi [5] was determined as 0. The “ZEAMX damage score, application pre-emergence” value (“ZEAMX damage score” below) in the assay with zea mays [6] is given as 0. Moreover, the “ABUTH herbicidal damage score” value in the assay with Abutilon theophrasti [7] stood at 3. The “ALOMY herbicidal damage score” value in the assay with Alopecurus myosuroides [8] is 3. Also, the “AMARE herbicidal damage score” value in the assay with Amaranthus retroflexus [9] is reported as 4. Also, the “ECHCG herbicidal damage score” value in the assay with Echinochloa crus-galli [10] came to 3. For the same compound, the “SETFA herbicidal damage score” value in the assay with Setaria faberi [11] is listed as 3. For the same compound, the “ZEAMX herbicidal damage score” value with zea mays [12] is 1.

For the compound `CC#Cc1nnc(N2C(=O)C(OC)=C(C)C2O)cc1C(C)(C)F` (stereo not drawn) [BI12], the “ABUTH damage score” value with Abutilon theophrasti [1] is reported as 4. Besides, the “ALOMY damage score” value in the assay on Alopecurus myosuroides [2] is reported as 2. In addition, in the assay on Amaranthus retroflexus [3], the “AMARE damage score” value is reported as 5. In addition, in the assay on Echinochloa crus-galli [4], the “ECHCG damage score” value is reported as 4. For the same compound, in the assay on Setaria faberi [5], the “SETFA damage score” value worked out at 5. Besides, the “ZEAMX damage score” value in the assay on zea mays [6] was 3. In the assay on Abutilon theophrasti [7], the “ABUTH herbicidal damage score” value is given as 5. The “ALOMY herbicidal damage score” value in the assay with Alopecurus myosuroides [8] turned out to be 4. For the same compound, the “AMARE herbicidal damage score” value with Amaranthus retroflexus [9] was found to be 5. In addition, in the assay with Echinochloa crus-galli [10], the “ECHCG herbicidal damage score” value was found to be 5. Further, the “SETFA herbicidal damage score” value in the assay with Setaria faberi [11] amounted to 5. In addition, the “ZEAMX herbicidal damage score” value in the assay with zea mays [12] is 4.

As for `COC1=C(C)C(O)N(c2cc(C)c(OC)nn2)C1=O` (stereo not drawn) [BG1], in the assay on Abutilon theophrasti [1], the “ABUTH damage score” value came to 2. In the assay on Alopecurus myosuroides [2], the “ALOMY damage score” value was 3. For the same compound, the “AMARE damage score” value with Amaranthus retroflexus [3] came to 5. Further, in the assay on Echinochloa crus-galli [4], the “ECHCG damage score” value is reported as 4. In addition, the “SETFA damage score” value in the assay on Setaria faberi [5] is 2. The “ZEAMX damage score” value with zea mays [6] came out at 1. Further, in the assay on Abutilon theophrasti [7], the “ABUTH herbicidal damage score” value is recorded as 5. Also, the “ALOMY herbicidal damage score” value in the assay on Alopecurus myosuroides [8] is 4. Moreover, the “AMARE herbicidal damage score” value in the assay on Amaranthus retroflexus [9] worked out at 5. Also, the “ECHCG herbicidal damage score” value in the assay on Echinochloa crus-galli [10] is reported as 5. Besides, the “SETFA herbicidal damage score” value in the assay with Setaria faberi [11] worked out at 5. Besides, in the assay with zea mays [12], the “ZEAMX herbicidal damage score” value is reported as 4.

Regarding `C#CCNC(=O)c1cnc(N2C(=O)C(OC)=C(C)C2O)cc1C(F)(F)F` (stereo not drawn) [AI10], the “ABUTH damage score” value with Abutilon theophrasti [1] is listed as 5. Further, the “ALOMY damage score” value in the assay on Alopecurus myosuroides [2] is given as 4. Besides, the “AMARE damage score” value with Amaranthus retroflexus [3] turned out to be 5. Further, the “ECHCG damage score” value with Echinochloa crus-galli [4] was 5. In the assay with Setaria faberi [5], the “SETFA damage score” value is listed as 5. The “ZEAMX damage score” value in the assay with zea mays [6] was 4. In the assay with Abutilon theophrasti [7], the “ABUTH herbicidal damage score” value amounted to 4. In addition, the “ALOMY herbicidal damage score” value with Alopecurus myosuroides [8] worked out at 5. For the same compound, the “AMARE herbicidal damage score” value in the assay on Amaranthus retroflexus [9] stood at 5. The “ECHCG herbicidal damage score” value in the assay on Echinochloa crus-galli [10] came to 5. The “SETFA herbicidal damage score” value with Setaria faberi [11] came out at 5. In addition, the “ZEAMX herbicidal damage score” value in the assay with zea mays [12] came to 5.

On to `CC1=C(Cl)C(=O)N(c2cc(C(F)(F)F)c(-c3cccc(C#N)c3)cn2)C1O` (stereo not drawn) [AF95], for which the “ABUTH damage score” value in the assay with Abutilon theophrasti [1] is reported as 0. Besides, the “ALOMY damage score” value in the assay with Alopecurus myosuroides [2] stood at 0. The “AMARE damage score” value in the assay on Amaranthus retroflexus [3] came out at 0. Also, in the assay on Echinochloa crus-galli [4], the “ECHCG damage score” value was 0. Besides, the “SETFA damage score” value in the assay with Setaria faberi [5] was determined as 0. The “ZEAMX damage score” value in the assay on zea mays [6] was determined as 0. For the same compound, the “ABUTH herbicidal damage score” value in the assay with Abutilon theophrasti [7] is reported as 3. In addition, in the assay on Alopecurus myosuroides [8], the “ALOMY herbicidal damage score” value is 2. Also, the “AMARE herbicidal damage score” value with Amaranthus retroflexus [9] turned out to be 5. For the same compound, the “ECHCG herbicidal damage score” value in the assay with Echinochloa crus-galli [10] stood at 2. In the assay on Setaria faberi [11], the “SETFA herbicidal damage score” value was 4. The “ZEAMX herbicidal damage score” value in the assay with zea mays [12] was 2.

For the origin of these results see US9963445B2, “Chemical compounds” (SYNGENTA PARTICIPATIONS AG, priority 2013, dated 2018).
